Results from patent US10968266B2, “GIP peptide analogues” (University of Copenhagen, priority 2014, dated 2021).

Tests used:
perfused rat pancreata = assay: Somatostatin secretion from isolated perfused rat pancreas; settings: 1 nM hGIP or 100 nM GIP(3-30), 7 mM glucose
Protocol: Non-fasted rats were anaesthetized with an IP injection of Hypnorm/Dormicum and the pancreas was dissected and perfused in situ. […] All other aortic branches were ligated. The venous effluent was collected for 1 min intervals via an obstructing cannula inserted into the portal vein, and stored at −20° C. until analysis. The flow rate was kept constant at 4 ml/min. The perfusion medium was continuously gassed with a 95% O2/5% CO2 mixture to achieve pH 7.4, and maintained at 37° C. during the entire experiment.
Pancreatic somatostatin concentrations in venous effluent were analysed by RIA. Somatostatin immunoreactivity was determined using antiserum 1758, which was raised in rabbits against synthetic cyclic somatostatin and recognizes both somatostatin-14 and somatostatin-28 [37, 38].

human GIP receptor [1] = target: T1, human GIP receptor (Homo sapiens, UniProt P48546); assay: Competitive binding assay with 125I-labelled GIP radioligands, COS-7 cells transfected with human GIP receptor (Example 7); settings: for Competitive binding fold (fold change of GIP(1-30)NH2 affinity): radioligand 125I-GIP(1-42); for Competitive binding fold (fold change of GIP(1-30)NH2 affinity) / fold change GIP(1-30)NH2: relative to GIP(1-30)NH2
T1 construct: host or cells: COS-7 cells, transient transfection (calcium phosphate precipitation), pCMV-Script vector
T1 sequence (P48546 22-466): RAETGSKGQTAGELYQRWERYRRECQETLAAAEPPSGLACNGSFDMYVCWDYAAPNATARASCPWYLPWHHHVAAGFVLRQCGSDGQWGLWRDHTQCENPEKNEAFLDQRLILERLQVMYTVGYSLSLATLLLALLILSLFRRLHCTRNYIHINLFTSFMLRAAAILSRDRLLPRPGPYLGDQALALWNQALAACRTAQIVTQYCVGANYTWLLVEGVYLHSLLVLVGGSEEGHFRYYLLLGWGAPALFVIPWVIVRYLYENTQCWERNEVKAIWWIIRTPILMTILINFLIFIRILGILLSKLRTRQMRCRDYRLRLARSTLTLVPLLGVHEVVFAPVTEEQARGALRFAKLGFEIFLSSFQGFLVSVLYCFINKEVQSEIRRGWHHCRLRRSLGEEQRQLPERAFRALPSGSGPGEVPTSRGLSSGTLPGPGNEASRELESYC
Protocol: Transfection of COS-7 cells was performed using the calcium phosphate precipitation method with chloroquine addition as previously described (Kissow et al., 2012). […] Nonspecific binding was determined as the binding of radioligand to untransfected cells. All determinations were made in duplicates, and all experiments repeated at least three times. The samples were analyzed for radioactivity using a Wallac Wizard 1470 Gamma Counter (GMI Inc., Minnesota, USA). The number “n” refers to individual experiments with separate transfections although from same cell line. IC50, EC50, and Kd/Ki values were determined by nonlinear regression. […] Statistical analyses (unpaired t-tests) of two parameters were also performed with GraphPad Prism 6.0. The calculations of Bmax and Ki values were based on the formula for one class of binding sites in homologous competition binding studies and the Cheng Prussoffs formula, respectively (DeBlasi et al., 1989). Kd is the dissociation constant determined by homologous receptor binding. […] Schild plots were performed with log (DR-1) (ordinate) and log(antagonist concentration) (abscissa) to estimate the slopes and Ki values (Lazareno and Birdsall, 1993).

human GIP receptor [2] = target: T1, human GIP receptor; assay: cAMP accumulation assay (agonism, antagonism, Schild analysis), COS-7 cells transfected with human GIP receptor (Example 7); type: cell-based; settings: for Slope of Schild plot: GIP(1-42) dose-response curves with fixed antagonist concentrations
Protocol: COS-7 cells were grown in 10% CO2 and at 37° C. in Dulbecco's modified Eagle's medium 1885 supplemented with 10% fetal bovine serum, 2 mM glutamine, 180 units/ml penicillin, and 45 µg/ml streptomycin. Transfection of COS-7 cells was performed using the calcium phosphate precipitation method with chloroquine addition as previously described (Kissow et al., 2012).
Two days after transfection the cells were washed once with HEPES buffered saline (HBS) and incubated with HBS and 0.5 mM 3-isobutyl-1-methylxanthine (IBMX) for 30 minutes at 37° C. […] After ligand incubation, the HitHunter™ cAMP XS assay (an enzyme fragment complementation-based assay, DiscoveRx, Birmingham, United Kingdom) was carried out according to the manufacturer's instructions. All experiments were made in duplicates, and repeated at least three times. Luminescence was measured by Perkin Elmer™ EnVision 2104 Multilabled reader (Skovlunde, Danmark). In brief, the cells were lysed in the wells, the enzyme fragment-cAMP-antibody, an enzyme fragment and the enzyme substrates were added followed by 1 hour incubation at room temperature on shaker tray. The other enzyme fragment was added to the wells and incubated for 4 hours on shaker tray followed by measurements of luminescence. The ligand-induced cAMP competed with the binding of antibody to the first enzyme fragment and left the two fragments to fuse. The enzyme complex hydrolyzed the substrates and yielded luminescence. The number “n” refers to individual experiments with separate transfections although from same cell line.
IC50, EC50, and Kd/Ki values were determined by nonlinear regression. These, as well as maximal binding capacity (Bmax) values and Schild plot analysis were carried out with the GraphPad Prism 6.0 software (GraphPad, San Diego, Calif., USA) and Microsoft Excel™. Statistical analyses (unpaired t-tests) of two parameters were also performed with GraphPad Prism 6.0. The calculations of Bmax and Ki values were based on the formula for one class of binding sites in homologous competition binding studies and the Cheng Prussoffs formula, respectively (DeBlasi et al., 1989). Kd is the dissociation constant determined by homologous receptor binding. […] Schild plots were performed with log (DR-1) (ordinate) and log(antagonist concentration) (abscissa) to estimate the slopes and Ki values (Lazareno and Birdsall, 1993).

[3] = inhibition of GIP(1-42) at 50-80% of max receptor activation

Question: How did the “Somatostatin secretion induced by the peptide alone” value (perfused rat pancreata) turn out when `CC[C@H](C)[C@H](NC(=O)[C@H](CO)NC(=O)[C@H](Cc1ccc(O)cc1)NC(=O)[C@H](CC(=O)O)NC(=O)[C@H](CO)NC(=O)[C@@H](NC(=O)[C@H](Cc1ccccc1)NC(=O)[C@@H](NC(=O)CNC(=O)[C@H](CCC(=O)O)NC(=O)[C@H](C)NC(=O)[C@@H](N)Cc1ccc(O)cc1)[C@@H](C)O)[C@@H](C)CC)C(=O)N[C@@H](C)C(=O)N[C@@H](CCSC)C(=O)N[C@@H](CC(=O)O)C(=O)N[C@@H](CCCCN)C(=O)N[C@H](C(=O)N[C@@H](Cc1c[nH]cn1)C(=O)N[C@@H](CCC(N)=O)C(=O)N[C@@H](CCC(N)=O)C(=O)N[C@@H](CC(=O)O)C(=O)N[C@@H](Cc1ccccc1)C(=O)N[C@H](C(=O)N[C@@H](CC(N)=O)C(=O)N[C@@H](Cc1c[nH]c2ccccc12)C(=O)N[C@@H](CC(C)C)C(=O)N[C@@H](CC(C)C)C(=O)N[C@@H](C)C(=O)N[C@@H](CCC(N)=O)C(=O)N[C@@H](CCCCN)C(=O)NCC(=O)N[C@@H](CCCCN)C(=O)N[C@@H](CCCCN)C(=O)N[C@@H](CC(N)=O)C(=O)N[C@@H](CC(=O)O)C(=O)N[C@@H](Cc1c[nH]c2ccccc12)C(=O)N[C@@H](CCCCN)C(=O)N[C@@H](Cc1c[nH]cn1)C(=O)N[C@@H](CC(N)=O)C(=O)N[C@H](C(=O)N[C@H](C(=O)N[C@@H](CCC(N)=O)C(=O)O)[C@@H](C)O)[C@@H](C)CC)C(C)C)[C@@H](C)CC` [GIP(1-42)] was run?
Answer: robust somatostatin secretion

Question: For `CC[C@H](C)[C@H](NC(=O)[C@H](CO)NC(=O)[C@H](Cc1ccc(O)cc1)NC(=O)[C@H](CC(=O)O)NC(=O)[C@H](CO)NC(=O)[C@@H](NC(=O)[C@H](Cc1ccccc1)NC(=O)[C@@H](N)[C@@H](C)O)[C@@H](C)CC)C(=O)N[C@@H](C)C(=O)N[C@@H](CCSC)C(=O)N[C@@H](CC(=O)O)C(=O)N[C@@H](CCCCN)C(=O)N[C@H](C(=O)N[C@@H](Cc1c[nH]cn1)C(=O)N[C@@H](CCC(N)=O)C(=O)N[C@@H](CCC(N)=O)C(=O)N[C@@H](CC(=O)O)C(=O)N[C@@H](Cc1ccccc1)C(=O)N[C@H](C(=O)N[C@@H](CC(N)=O)C(=O)N[C@@H](Cc1c[nH]c2ccccc12)C(=O)N[C@@H](CC(C)C)C(=O)N[C@@H](CC(C)C)C(=O)N[C@@H](C)C(=O)N[C@@H](CCC(N)=O)C(=O)N[C@@H](CCCCN)C(N)=O)C(C)C)[C@@H](C)CC` [GIP(5-30)NH2], which “Competitive binding fold (fold change of GIP(1-30)NH2 affinity)” value (human GIP receptor [1]) is on record?
Answer: 6.6 fold

Question: And the “Type of antagonism (Schild analysis)” value (human GIP receptor [2])?
Answer: pure competitive antagonists

Question: And the “Slope of Schild plot” value (human GIP receptor [2])?
Answer: 1.1±0.04

Question: What about the IC50 (human GIP receptor [2]; [3]) of the same molecule?
Answer: 11.9 nM

Question: What does the source list for `CC[C@H](C)[C@H](NC(=O)[C@H](CO)NC(=O)[C@H](Cc1ccc(O)cc1)NC(=O)[C@H](CC(=O)O)NC(=O)[C@H](CO)NC(=O)[C@@H](NC(=O)[C@H](Cc1ccccc1)NC(=O)[C@@H](NC(=O)CN)[C@@H](C)O)[C@@H](C)CC)C(=O)N[C@@H](C)C(=O)N[C@@H](CCSC)C(=O)N[C@@H](CC(=O)O)C(=O)N[C@@H](CCCCN)C(=O)N[C@H](C(=O)N[C@@H](Cc1c[nH]cn1)C(=O)N[C@@H](CCC(N)=O)C(=O)N[C@@H](CCC(N)=O)C(=O)N[C@@H](CC(=O)O)C(=O)N[C@@H](Cc1ccccc1)C(=O)N[C@H](C(=O)N[C@@H](CC(N)=O)C(=O)N[C@@H](Cc1c[nH]c2ccccc12)C(=O)N[C@@H](CC(C)C)C(=O)N[C@@H](CC(C)C)C(=O)N[C@@H](C)C(=O)N[C@@H](CCC(N)=O)C(=O)N[C@@H](CCCCN)C(N)=O)C(C)C)[C@@H](C)CC` [GIP(4-30)NH2]?
Answer: Competitive binding fold (fold change of GIP(1-30)NH2 affinity) (human GIP receptor [1]): 24 fold; Slope of Schild plot (human GIP receptor [2]): 0.75±0.02; IC50 (human GIP receptor [2]; [3]): 108 nM

Question: Which “fold change GIP(1-30)NH2” value (human GIP receptor [1]; radioligand 125I-GIP(1-30)NH2) does the source give for `CC[C@H](C)[C@H](NC(=O)[C@H](CO)NC(=O)[C@H](Cc1ccc(O)cc1)NC(=O)[C@H](CC(=O)O)NC(=O)[C@H](CO)NC(=O)[C@@H](NC(=O)[C@@H](N)Cc1ccccc1)[C@@H](C)CC)C(=O)N[C@@H](C)C(=O)N[C@@H](CCSC)C(=O)N[C@@H](CC(=O)O)C(=O)N[C@@H](CCCCN)C(=O)N[C@H](C(=O)N[C@@H](Cc1c[nH]cn1)C(=O)N[C@@H](CCC(N)=O)C(=O)N[C@@H](CCC(N)=O)C(=O)N[C@@H](CC(=O)O)C(=O)N[C@@H](Cc1ccccc1)C(=O)N[C@H](C(=O)N[C@@H](CC(N)=O)C(=O)N[C@@H](Cc1c[nH]c2ccccc12)C(=O)N[C@@H](CC(C)C)C(=O)N[C@@H](CC(C)C)C(=O)N[C@@H](C)C(=O)N[C@@H](CCC(N)=O)C(=O)N[C@@H](CCCCN)C(N)=O)C(C)C)[C@@H](C)CC` [GIP(6-30)NH2, reference compound] here?
Answer: 3502 fold

Question: What about the IC50 (human GIP receptor [1]; radioligand 125I-GIP(2-30)NH2) of the same molecule?
Answer: 340 nM

Question: And the “fold change GIP(1-30)NH2” value (human GIP receptor [1]; radioligand 125I-GIP(2-30)NH2)?
Answer: 707 fold

Question: What about the IC50 (human GIP receptor [1]; radioligand 125I-GIP(3-30)NH2) of the same molecule?
Answer: 370 nM

Question: And the “fold change GIP(1-30)NH2” value (human GIP receptor [1]; radioligand 125I-GIP(3-30)NH2)?
Answer: 223 fold

Question: What about the “Slope of Schild plot” value (human GIP receptor [2]) of the same molecule?
Answer: 0.38±0.13

Question: What about the IC50 (human GIP receptor [2]; [3]) of the same molecule?
Answer: 342 nM

Question: And the “cAMP accumulation logIC50 ± SEM (antagonism)” value (human GIP receptor [2]; inhibition of GIP(1-42) at 50-80% of max receptor activation, given with negative sign)?
Answer: −6.47 ± 0.6
